Experimental data: paper PMC6264390, “Design, Synthesis and Structure-activity Studies of Rhodanine Derivatives as HIV-1 Integrase Inhibitors” (Molecules, 2010)
Like-named read-outs stand apart in the source and are kept apart here.

Tests used:
[1] = molecular target: T1, human apurinic/apyrimidinic endonuclease 1 (APE1) (Homo sapiens, UniProt P27695); assay: APE1 inhibition assay; type: biochemical; details: read-out: Inhibition of APE1 catalytic activity IC50
T1 construct: His; made in house
Experimental: (§1) All compounds were dissolved in DMSO to a final stock concentration of 10 mM and stored at −20 °C. Initial screening for IN inhibitory effect was done at 100 μM and dilutions were made in DMSO. Compounds showing at least 50% inhibition at 100 μM were selected for IC50 determinations. γ-[^32P]-ATP was purchased from Perkin Elmer (Waltham, MA, USA). The expression system for wild-type IN was a generous gift of Dr. Robert Craigie, Laboratory of Molecular Biology, NIDDK, NIH (Bethesda, MD, USA). His-tagged APE1 was purified from an expression system kindly provided by Dr. Tom Curran, Department of Developmental Neurobiology, St. Jude Children’s Research Hospital (Memphis, TN, USA).
(§2) 21-mer oligonucleotides used in IN inhibition assay [21top (5’-[…]-3’) and 21bot (5’-ACTGCTAGAGATTTTCCA CAC-3’)] were purchased from Integrated DNA Technologies (Coralville, IA, USA) and purified by UV shadowing on polyacrylamide gel. The oligonucleotides used in APE1 inhibition assay [top strand: 5′-ATTTCACCGGTACG(F)TCTAGAATC CG-3′ containing the tetrahydrofuran synthetic abasic residue (F), and bottom strand: 3′-TAAAGTGG CCATGC(C)AGATCTTAGGC-5′] were purchased from The Midland Certified Reagent Company (Midland, TX, USA). To analyze the extent of 3’-processing and strand transfer with 5’-end labeled substrates, 21top was 5’-end labeled using T4 polynucleotide kinase (Epicentre, Madison, WI, USA) and [γ-^32P]-ATP (Perkin Elmer, Waltham, MA, USA). The kinase was heat-inactivated at 95 °C and 21bot was added in […]. The reaction mixture was allowed to cool slowly to room temperature, and purified through a spin-25 minicolumn (USA Scientific, Ocala, FL, USA) to separate annealed double-stranded oligonucleotide from unincorporated material. The oligonucleotides used in the APE1 inhibition assay were labeled using a similar protocol.
APE1 inhibition assay was performed as previously described. To determine the extent of endonucleolytic cleavage of the abasic residue, the test compounds, diluted in DMSO, were preincubated with recombinant APE1 at a final concentration of 0.05 nM in the reaction buffer [50 mM NaCl, 1 mM HEPES, pH 7.5, 50 μM EDTA, 50 μM dithiothreitol, 10% glycerol (w/v), 7.5 mM MnCl2, 0.1 mg mL‑1 bovine serum albumin, 10 mM 2-mercaptoethanol, 10% DMSO, and 25 mM MOPS, pH 7.2] at 30 °C for 10 min. Following preincubation, 200 nM of the 5′-end ^32P-labeled linear oligonucleotide substrate was added, and incubated for an additional 10 minutes. Reactions were quenched by the addition of an equal volume (16 μL) of loading dye (98% deionized formamide, 10 mM EDTA, 0.025% xylene cyanol, and 0.025% bromophenol blue). An aliquot (5 μL) was electrophoresed on a denaturing 20% polyacrylamide gel (0.09 M tris-borate pH 8.3, 2 mM EDTA, 20% acrylamide, 8 M urea). The gels were dried, exposed in a PhosphorImager cassette and analyzed using a Typhoon 8610 Variable Mode Imager (Amersham Biosciences). Quantification of enzyme inhibition was done using Image Quant 5.2 software. The percent inhibition (% I) was calculated using the following equation: %I = 100 × [1 − (D − C) / (N − C)] where C, N, and D are the fractions of 26-mer substrate converted to 13-mer incision products (or integration products) for DNA alone, DNA plus APE1, and DNA, APE1 plus test compound, respectively. IC50 values were determined by plotting the logarithm of compound concentration as a function of %I to obtain the concentration that produced 50% inhibition. An optimum concentration of APE1 enzyme, at which there is complete conversion of the synthetic abasic-site containing oligonucleotide substrate to its cleaved product without subsequent exonuclease activity, was used in the assay.

[2] = molecular target: T2, HIV-1 IN (Human immunodeficiency virus type 1 group M subtype B, UniProt P12497); assay: In vitro IN inhibition assay (3’-processing and strand transfer); type: biochemical; details: for IC50: Mn2+ cofactor (7.5 mM MnCl2)
T2 construct: pre-incubated with purified recombinant IN (at a final concentration of 200 nM); made in house
Experimental: as §1, §2
To determine the extent of 3’-processing and strand transfer, the test compounds, diluted in DMSO, were pre-incubated with purified recombinant IN (at a final concentration of 200 nM) in the reaction buffer [50 mM NaCl, 1 mM HEPES (pH 7.5), 50 μM EDTA, 50 μM dithiothreitol, 10% glycerol (w/v), 7.5 mM MnCl2, 0.1 mg mL–1 bovine serum albumin, 10 mM 2-mercaptoethanol, 10% dimethyl sulfoxide, and 25 mM MOPS (pH 7.2)] at 30 °C for 30 min. For Mg^2+ assay, 7.5 mM MgCl2 was substituted for MnCl2 and an optimal concentration of PEG was included in the reaction buffer. Following the pre-incubation, 20 nM of the 5’-end ^32P-labeled linear oligonucleotide substrate was added to the reaction mixture and incubated for an additional 1 h. Reactions were quenched by addition of 50X loading dye (98% deionized formamide, 10 mM EDTA, 0.025% xylene cyanol, and 0.025 % bromophenol blue). An aliquot was subjected to electrophoresis on a denaturing polyacrylamide gel (0.09 M tris–borate, pH 8.3, 2 mM EDTA, 20% acrylamide, 8M urea). Gels were dried under vacuum, exposed in a PhosphorImager cassette and visualized with a Typhoon 8610 Variable Mode Imager (Amersham Biosciences). Quantification was done with Image Quant 5.2 software. Percent inhibition (%I) was calculated using the following equation: %I = 100 × [1 − (D − C) / (N − C)] where C, N, and D are the fractions of 21-mer substrate converted into 19-mer (product of 3’-processing) or strand-transfer products for DNA alone, DNA plus IN, and DNA, IN plus test compound, respectively. IC50 values were determined by plotting the logarithm of test compound concentrations as a function of %I to obtain the concentration that produced 50% inhibition.

[3] = read-out: Inhibition of IN catalytic activity IC50, 3’-Processing
[4] = read-out: Inhibition of IN catalytic activity IC50, Strand Transfer

T1 sequence (P27695 whole entry): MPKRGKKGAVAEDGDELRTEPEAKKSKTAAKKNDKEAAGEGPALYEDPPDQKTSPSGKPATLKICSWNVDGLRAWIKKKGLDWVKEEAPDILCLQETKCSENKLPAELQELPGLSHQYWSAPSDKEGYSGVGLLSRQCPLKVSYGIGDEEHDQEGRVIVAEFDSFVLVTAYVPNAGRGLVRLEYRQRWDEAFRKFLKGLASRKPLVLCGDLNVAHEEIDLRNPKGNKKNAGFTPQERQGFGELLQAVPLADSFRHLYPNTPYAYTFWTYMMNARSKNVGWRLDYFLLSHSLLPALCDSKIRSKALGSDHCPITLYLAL

SMILES	IC50 [1]	melting point	IC50 [2, 3]	IC50 [2, 4]	decrease in potency relative to 53 ([2]; IN inhibition, trimethoxy versus p-hydroxyl in ring A)	IN inhibition (in words) ([2]; highest concentration tested 100 μM)
CCN(CC)c1ccc(C=C2SC(=S)N(NC(=S)C(=O)Nc3cc(OC)c(OC)c(OC)c3)C2=O)c(O)c1 [Compound 33, 2-({5-[4-(Diethylamino)-2-hydroxybenzylidene]-4-oxo-2-thioxo-1,3-thiazolidin-3-yl}amino)-2-thioxo-N-(3,4,5-trimethoxyphenyl)acetamide]	> 100 µM	210 to 211 °C	> 100 µM	> 100 µM		
COc1cc(NC(=O)C(=S)NN2C(=O)C(=Cc3cc(Br)ccc3O)SC2=S)cc(OC)c1OC [Compound 28, 2-{[5-(5-Bromo-2-hydroxybenzylidene)-4-oxo-2-thioxo-1,3-thiazolidin-3-yl]amino}-2-thioxo-N-(3,4,5-trimethoxyphenyl)acetamide]	> 100 µM	208 to 209 °C	44 ± 13 µM	30 ± 19 µM		
CCOc1cccc(C=C2SC(=S)N(NC(=S)C(=O)Nc3cc(OC)c(OC)c(OC)c3)C2=O)c1O [Compound 31, 2-{[5-(3-Ethoxy-2-hydroxybenzylidene)-4-oxo-2-thioxo-1,3-thiazolidin-3-yl]amino}-2-thioxo-N-(3,4,5-trimethoxyphenyl)acetamide]	> 100 µM	231 to 232 °C	> 100 µM	> 100 µM		
COc1ccc(NC(=O)C(=S)NN2C(=O)C(=Cc3ccc(Cl)cc3)SC2=S)cc1 [Compound 9, 2-{[5-(4-Chlorobenzylidene)-4-oxo-2-thioxo-1,3-thiazolidin-3-yl]amino}-N-(4-methoxyphenyl)-2-thioxoacetamide]	47 ± 2 µM	186 to 187 °C	33 µM	33 µM		
COc1cc(NC(=O)C(=S)NN2C(=O)C(=Cc3cccc([N+](=O)[O-])c3O)SC2=S)cc(OC)c1OC [Compound 29, 2-{[5-(2-Hydroxy-3-nitrobenzylidene)-4-oxo-2-thioxo-1,3-thiazolidin-3-yl]amino}-2-thioxo-N-(3,4,5-trimethoxyphenyl)acetamide]	> 100 µM	193 to 194 °C	74 ± 18 µM	72 ± 23 µM		
COc1cc(NC(=O)C(=S)NN2C(=O)C(=Cc3cc(I)cc(I)c3O)SC2=S)cc(OC)c1OC [Compound 39, 2-{[5-(2-Hydroxy-3,5-diiodobenzylidene)-4-oxo-2-thioxo-1,3-thiazolidin-3-yl]amino}-N-(3,4,5-trimethoxyphenyl)-2-thioxoacetamide]	> 100 µM	235 to 236 °C	47 ± 20 µM	31 ± 16 µM	10 fold	
COc1cc(C=C2SC(=S)N(NC(=S)C(=O)Nc3cccc(C(F)(F)F)c3)C2=O)cc(OC)c1OC [Compound 25, 2-{[4-Oxo-2-thioxo-5-(3,4,5-trimethoxybenzylidene)-1,3-thiazolidin-3-yl]amino}-2-thioxo-N-[3-(tri-fluoromethyl)phenyl]acetamide]	> 100 µM	160 to 161 °C	> 100 µM	> 100 µM		
O=C(Nc1cccc([N+](=O)[O-])c1)C(=S)NN1C(=O)C(=Cc2ccc(Cl)cc2)SC1=S [Compound 8, 2-{[5-(4-Chlorobenzylidene)-4-oxo-2-thioxo-1,3-thiazolidin-3-yl]amino}-N-(3-nitrophenyl)-2-thioxo-acetamide]	76 ± 5 µM	221 to 222 °C	> 100 µM	> 100 µM		lacked any IN inhibitory activity
O=C(Nc1ccc(F)cc1)C(=S)NN1C(=O)C(=Cc2ccc(Cl)cc2)SC1=S [Compound 6, 2-{[5-(4-Chlorobenzylidene)-4-oxo-2-thioxo-1,3-thiazolidin-3-yl]amino}-N-(4-fluorophenyl)-2-thioxo-acetamide]	> 100 µM	204 to 205 °C	> 100 µM	> 100 µM		
COc1cc(NC(=O)C(=S)NN2C(=O)C(=Cc3cc(Cl)cc(Cl)c3O)SC2=S)cc(OC)c1OC [Compound 36, 2-{[5-(3,5-Dichloro-2-hydroxybenzylidene)-4-oxo-2-thioxo-1,3-thiazolidin-3-yl]amino}-2-thioxo-N-(3,4,5-trimethoxyphenyl)acetamide]	> 100 µM	215 to 216 °C	46 ± 5 µM	> 100 µM		
O=C(Nc1ccc(O)cc1)C(=S)NN1C(=O)C(=Cc2ccc(O)c(C(=O)O)c2)SC1=S [Compound 49, 2-Hydroxy-5-{[3-({2-[(4-hydroxyphenyl)amino]-2-oxoethanethioyl}amino)-4-oxo-2-thioxo-1,3-thiazolidin-5-ylidene]methyl}benzoic acid]	> 100 µM	223 to 224 °C	80 µM	45 µM		
Cc1ccc(C(=O)C=C2SC(=S)N(NC(=S)C(=O)Nc3ccccc3)C2=O)cc1 [Compound 11, 2-{5-[2-(4-Methylphenyl)-2-oxoethylidene]-4-oxo-2-thioxo-1,3-thiazolidin-3-yl}amino-N-phenyl-2-thioxoacetamide]	> 100 µM	147 to 148 °C	58 ± 4 µM	20 ± 6 µM		
O=C(Nc1ccc(O)cc1)C(=S)NN1C(=O)C(=Cc2cc(Br)ccc2O)SC1=S [Compound 42, 2-{[5-(5-Bromo-2-hydroxybenzylidene)-4-oxo-2-thioxo-1,3-thiazolidin-3-yl]amino}-N-(4-hydroxy-phenyl)-2-thioxoacetamide]	> 100 µM	190 to 191 °C	> 100 µM	> 100 µM		
CCOc1cc(-n2cnnn2)c(OCC)cc1NC(=O)C(=S)NN1C(=O)C(=Cc2cc(OC)c(OC)c(OC)c2)SC1=S [Compound 23, N-[2,5-diethoxy-4-(1H-tetrazol-1-yl)phenyl]-2-{[4-oxo-2-thioxo-5-(3,4,5-trimethoxybenzylidene)-1,3-thiazolidin-3-yl]amino}-2-thioxoacetamide]	83 µM	158 to 159 °C	> 100 µM	> 100 µM		
